Test results reported in publication PMC10202811 (Nature Medicine, 2023).
“Also recorded” adds a separate entry of the source.

Experiment: Real-time neurobehavioral monitoring of CNS effects
Type: in vivo, human
From the text: The Adaptive Behavior Assessment System 3rd edition (ABAS-3; Harrison & Oakland, 2015) parent-report and self-report forms were used for the assessment of adaptive skills for individuals across all ages. Internal consistency has been reported to be 0.96 or greater for the composite adaptive behavior scale and between 0.86 and 0.99 for the subscales. Construct, convergent and discriminant validity have also been established for this measure.
The Behavior Assessment System for Children 3rd edition (BASC-3; Reynolds & Kamphaus, 2015) is a questionnaire assessing behavioral, emotional and adaptive functioning across settings. For purposes of this study, the Parent Rating Scales (PRS) were administered for patients ages 2–5 years (Preschool form, PRS-P), 6–11 years (Child form, PRS-C) and 12–17 years (Adolescent form, PRS-A). The Self-Report of Personality (SRP) College Form was administered for adult patients ages 18–25 years. The reliability of the BASC-3 is strong, with internal consistency averaging above 0.80 for all the age-specific versions of this questionnaire, and average test–retest reliability is 0.86.
The Behavior Rating Inventory of Executive Function (BRIEF; Gioia et al. 2000) is a questionnaire designed to assess behavioral manifestations of executive functioning and includes multiple versions. Parents of participants aged 2–5 years completed the 63-item preschool version (BRIEF-P). Parents of participants aged 6–17 years completed the BRIEF parent form, which consists of 86 individual items from which eight clinical scales, two indices and one composite score are derived. Patients who were ≥18 years of age completed a 75-item self-report adult version (BRIEF-A). Scores are standardized by age and gender, and high internal consistency (0.73–0.98) and test–retest reliability (0.76–0.90) were observed. Construct, content, convergent and discriminant validity have been established.
CogState Research Battery (version 7; Sands et al. 2017; Heitzer et al. 2018) is a flexible battery of computer-based tests developed to monitor domains of cognition typically affected by cancer treatment, such as attention, memory, executive function and processing speed. Three different versions were used, one for children 3–5 years of age, one for children 6–9 years of age and one for patients 10 years of age and older. Age-standardized z-scores were derived based on the CogState normative dataset finalized in September 2014 for adults and in February 2016 for pediatrics, with construct validity, criterion validity, cultural equivalence and limited practice effects established.
Only measures with established language translations were used. If measures were not available in a patient’s primary language, neurobehavioral toxicity assessment was based on the treating physician’s clinical determination using CTCAE version 4.0 grading criteria. All measures were individually administered by trained, qualified site personnel. Standardized scores were obtained for each instrument administered by comparing raw scores to normative samples provided by the test publishers. All evaluation results were reviewed, analyzed and interpreted centrally in real time by a pediatric neuropsychologist. Determination of clinically meaningful change in functioning (that is, significant decline) relative to baseline or previous screening exam was made at each retest interval. This was calculated using reliable change indices (RCIs) for individual tests or scales, which account for standard errors of measurement, to determine whether a statistically significant change in scores occurred between two timepoints. Meaningful change in performance was considered to occur when clinically significant decline (using 90% CI) was present in 50% of select administered measures. […]

[1] = A1 (< 18 yrs), DL 5 (115 mg/m^2)
[2] = B2 (< 18yrs), DL 5 (115 mg/m^2)
[3] = patient with CNS DLT, A2 (≥ 18 yrs), 100 mg
[4] = patient with CNS DLT, B2 (< 18yrs), DL 5 (115 mg/m^2)
[5] = patients with CNS DLT, A2 (≥ 18 yrs), 150 mg

For `C[C@H]1Oc2cc(cnc2N)-c2c(nn(C)c2C#N)CN(C)C(=O)c2ccc(F)cc21` [Lorlatinib, (10R)-7-amino-12-fluoro-2,10,16-trimethyl-15-oxo-10,15,16,17-tetrahydro-2H-8,4-(metheno)pyrazolo[4,3-h][2,5,11]-benzoxadiazacyclotetradecine-3-carbonitrile], the “DLT Corresponding Neuropsych Symptoms, Cognitive” value [1] was “Stable”, the “DLT Corresponding Neuropsych Symptoms, Psychosocial” value [1] was “Adaptive Skills Depression” and the “DLT Corresponding Neuropsych Symptoms, Cognitive” value (A2 (≥ 18 yrs), 100 mg) was “Speed/Efficiency Working Memory Immediate Recall”. For the same molecule, the “DLT Corresponding Neuropsych Symptoms, Psychosocial” value (A2 (≥ 18 yrs), 100 mg) was “Adaptive Skills Attention Working Memory”, the “DLT Corresponding Neuropsych Symptoms, Cognitive” value (A2 (≥ 18 yrs), 150 mg) was “Stable” and the “DLT Corresponding Neuropsych Symptoms, Psychosocial” value (A2 (≥ 18 yrs), 150 mg) was “Anxiety Depression Emotional Lability Atypicality^c; also recorded: Adaptive Skills Depression Emotional Lability Working Memory”. The “DLT Corresponding Neuropsych Symptoms, Cognitive” value [2] was “Speed/ Efficiency Working Memory”, the “DLT Corresponding Neuropsych Symptoms, Psychosocial” value [2] was “Adaptive Skills Anxiety” and the “Pre-Cycle Neuropsych Symptoms, Psychosocial” value (patient with CNS DLT, A1 (< 18 yrs), DL 5 (115 mg/m^2)) was “Atypicality Adaptive Skills”. The “Pre-Cycle Neuropsych Symptoms, Cognitive” value (patient with CNS DLT, A1 (< 18 yrs), DL 5 (115 mg/m^2), decline from baseline) was “Stable”, the “Pre-Cycle Neuropsych Symptoms, Cognitive” value [3] was “Speed/ Efficiency Working Memory” and the “Pre-Cycle Neuropsych Symptoms, Psychosocial” value [3] was “Adaptive Skills Attention”. For the same molecule, the “Pre-Cycle Neuropsych Symptoms, Cognitive” value [4] was “Speed/ Efficiency”, the “Pre-Cycle Neuropsych Symptoms, Psychosocial” value [4] was “Atypicality Anxiety” and the “Pre-Cycle Neuropsych Symptoms, Cognitive” value [5] was “Stable; also recorded: Visual Memory”. For the same molecule, the “Pre-Cycle Neuropsych Symptoms, Psychosocial” value [5] was “Adaptive Skills Anxiety Emotional Lability Working Memory Atypicality; also recorded: Depression Emotional Lability Working Memory”.
